From US20070292901A1, “Methods and kits for evaluating and measuring the oncological status of tissue samples in three-dimensional physiological matrices” (priority 2006, published 2007)

System: Patient Sample GS-640, kidney tissue, renal cell carcinoma
Test: Three-dimensional gel matrix screening of chemotherapeutics on patient tumor tissue fragments (cell migration/invasion into the gel)
Format: cell-based, human
Settings: renal cell carcinoma patient sample GS-640 in gel matrix; for number of cells that have grown and invaded away from the solid tumor fragment / distance of cell migration away from the solid tumor fragment: 5 days after treatment, photomicrograph; for number of cells that have grown and invaded away from the solid tumor fragment: versus control; for response of tumor sample to the drug: treated for 5 days, 37 degree Celsius, 5% CO2, compared with untreated control (FIG. 5)
Excerpt: FIGS. 1-8 are photographic and photomicrographic images which show, by way of example, use of the means and methods of the present invention with respect to a tissue sample removed from a patient. With respect to FIGS. 1-8, Patient Sample GS-640, comprising kidney tissue, was removed from the patient by a surgeon during surgery.
Tissue analysis and screening in accordance with the invention were requested by the surgeon, and proper consent was obtained from the patient prior to surgical removal of a sample quantity of tissue from the RHS Kidney. The patient was diagnosed with renal cell carcinoma. A tissue sample of approximately 1 gram in quantity was removed from the patient during surgery, and was placed into a 25 ml sample jar, and immersed in sterile saline. The tumor tissue was kept at 4 degrees centigrade until processed for the screening of therapeutic compounds in accordance with the means and methods of the invention. All procedures were performed under sterile conditions in a bio-safety laminar flow hood.
FIG. 1: FIG. 1 is a photographic image showing the mechanical division of the sample into portions to be tested. The sample has been prepared by dissecting away any non viable tissue and blood prior to mincing into 1-2 mm pieces using sterile disposable scalpels.
FIG. 2: FIG. 2 is a photographic image showing tumor sample portions which have been placed into each well of a 48 well plate, and been submersed in a gel matrix mixture according to the invention. After insertion of the portions, the mixture was allowed to form into a gel at room temperature for approximately 30 minutes. Once the gel formed around the fully immersed tumor fragments, nutrient rich media was added as a liquid overlay that permeated the entire gel and tumor fragment.
Each different chemotherapy and or dose of chemotherapy was added to a set of 6 wells out of the 48-well plate. A total of 7 different chemotherapies were assessed in this plate. One set of six wells were not treated with drug and thus acted as ‘control conditions’ for tumor fragment growth and invasion. Each of the eight vertical lanes containing six separate wells was marked with a symbol for each chemotherapy/dose used and noted correspondingly on data collection sheets. […] The plates were then placed in a conventional 37 degree Celsius incubator at 5% CO2.
This image is thus representative of all wells at Day 0 with or without chemotherapeutics. Images were made with a 400× magnification phase contrast micrograph using ZEISS camera specs.
Noteworthy is the halo of cells and increased cell density as compared with the results shown at Day 3 of the test. The lines on the images have been drawn to show the distance measurements within which approximately 95% of the migrating cells have migrated away from the margins of the tissue sample.

SMILES | number of cells that have grown and invaded away from the solid tumor fragment | response of tumor sample to the drug | distance of cell migration away from the solid tumor fragment
N.N.[Cl][Pt][Cl] [Cisplatin] | identical in appearance and cell numbers to the control sample | failed chemotherapy | –
CC(=O)O[C@@]12CO[C@@H]1C[C@H](O)[C@@]1(C)C(=O)[C@H](O)C3=C(C)[C@@H](OC(=O)[C@H](O)[C@@H](NC(=O)OC(C)(C)C)c4ccccc4)C[C@@](O)([C@@H](OC(=O)c4ccccc4)[C@H]21)C3(C)C [Docetaxol, Docetaxel] | fewer number of invading cells than the control | moderate response | longer migratory distance than treatment with Taxol
CC(=O)O[C@H]1C(=O)[C@@]2(C)[C@H]([C@H](OC(=O)c3ccccc3)[C@]3(O)C[C@H](OC(=O)[C@H](O)[C@@H](NC(=O)c4ccccc4)c4ccccc4)C(C)=C1C3(C)C)[C@]1(OC(C)=O)CO[C@@H]1C[C@@H]2O [Taxol, Paclitaxel] | drop | – | drop
